Source: article PMC11579512, “Deoxybouvardin-glucoside induces apoptosis in non-small cell lung cancer cells by targeting EGFR/MET and AKT signaling pathway” (EXCLI Journal, 2024)
pIC50: −log10 of the molar value.

Legend:
HCC827 cells = assay: Soft agar anchorage-independent growth, HCC827; format: cell-based, human; conditions: 2 weeks
Description: The anchorage-independent cell growth assay was performed in 6-well plates with dual agar layers containing 0.6 % agar (lower layer) and 0.3 % agar (upper layer) supplemented with BME, 2 mM L-glutamine, 5 μg/ml gentamicin, and 10 % FBS. After 2 weeks of incubation, the number of colonies was assessed using a microscope (Leica, Wetzlar, Germany), and the mean colony area was analyzed using i-Solution ^TM software (Vancouver, BC, Canada).

AKT2 = molecular target: T1, AKT2 (Homo sapiens, UniProt P31751); assay: In vitro ADP-Glo kinase assay, AKT2; format: biochemical
T1 construct: purchased Promega
T1 sequence (P31751 whole entry): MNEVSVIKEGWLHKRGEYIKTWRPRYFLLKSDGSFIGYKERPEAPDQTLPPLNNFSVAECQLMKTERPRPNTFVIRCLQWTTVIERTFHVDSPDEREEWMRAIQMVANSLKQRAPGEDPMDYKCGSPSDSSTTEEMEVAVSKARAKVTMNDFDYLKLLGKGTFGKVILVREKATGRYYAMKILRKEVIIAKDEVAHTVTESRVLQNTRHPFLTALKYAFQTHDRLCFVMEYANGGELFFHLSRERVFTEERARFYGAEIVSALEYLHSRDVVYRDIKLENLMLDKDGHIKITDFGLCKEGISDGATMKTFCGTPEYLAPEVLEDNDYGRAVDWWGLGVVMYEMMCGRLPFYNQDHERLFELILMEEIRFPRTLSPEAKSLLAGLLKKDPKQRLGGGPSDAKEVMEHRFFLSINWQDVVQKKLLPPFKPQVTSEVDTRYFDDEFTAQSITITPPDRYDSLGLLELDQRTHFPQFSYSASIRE
Description: Subsequently, each well was added with ADP-Glo reagent and incubated for another 40 min. After completion of the kinase reaction, each well was added with kinase activity detection reagent and then incubated for 30 min. Liquid was dispensed with I.DOT (Dispendix, Stuttgart, Germany). Luminescence was measured on a Centro LB 960 microplate luminometer (Berthold Technologies).

p-MET (Y1234/1235) = assay: Western blot p-MET (Y1234/1235) in HCC827 and HCC827GR cells; format: cell-based, human; conditions: DBG 3, 6, 12 nM, 48 h
Description: (§1) HaCaT cells were grown in DMEM, whereas HCC827 and HCC827GR cells were grown in RPMI 1640. All culture media were supplemented with FBS (10 %) and P/S (1 %), and the cells were grown at 37 °C in 5 % CO2.
(§2) Cells were lysed in RIPA buffer, and protein concentration was determined using a Bio-Rad DC Protein Assay kit (Bio-Rad, Hercules, CA, USA). Protein samples from the cell lysates were resolved by sodium dodecyl sulfate-polyacrylamide gel electrophoresis and then transferred onto polyvinylidene fluoride membranes. The membranes were blocked with 3 % or 5 % skim milk and then incubated at 4 °C overnight with the indicated primary antibodies, followed by the corresponding horseradish peroxidase-conjugated secondary antibodies at RT for 2 h. Protein bands were visualized using western blotting luminol reagent solution and ImageQuant LAS 500 (GE Healthcare, Uppsala, Sweden). The density of the bands was quantified using ImageJ software (NIH, Bethesda, MD, USA).

cyclin D1 = assay: Immunoblot cyclin D1 in HCC827 and HCC827GR cells; format: cell-based, human; conditions: for cyclinD1 protein ratio: relative to DBG 0 nM = 1.00
Description: as §1, §2

p-EGFR = assay: Immunoblot p-EGFR with NAC pretreatment, HCC827 and HCC827GR cells; format: cell-based, human; conditions: for p-EGFR protein Ratio: control = 1.00
Description: as §1, §2

caspase-3 = assay: Immunoblot caspase-3 with NAC pretreatment, HCC827 and HCC827GR cells; format: cell-based, human; conditions: for caspase3 protein Ratio: control = 1.00
Description: as §1, §2

PARP = assay: Immunoblot PARP with NAC pretreatment, HCC827 and HCC827GR cells; format: cell-based, human; conditions: for PARP protein Ratio: control = 1.00
Description: as §1, §2

HCC827GR cells = assay: Multi-caspase assay, HCC827GR; format: cell-based, human; design: Caspase+ cells / Total Caspase+ cells / dead cells (multi-caspase assay) / Live cells (multi-caspase assay): unit not given here; conditions: for cells with activated caspases: 48 h, background 6.43 %; for Caspase+ cells / Caspase+/dead cells / Live cells (multi-caspase assay) / Total Caspase+ cells / dead cells (multi-caspase assay): HCC827GR
Description: as §1

COc1ccc(C[C@H]2C(=O)N[C@@H](C)C(=O)N(C)[C@H]3Cc4ccc(cc4)Oc4cc(ccc4O[C@@H]4O[C@H](CO)[C@@H](O)[C@H](O)[C@H]4O)C[C@@H](C(=O)N[C@H](C)C(=O)N[C@@H](C)C(=O)N2C)N(C)C3=O)cc1 [DBG, deoxybouvardin glucoside]
colony number, Control % (HCC827 cells; DBG 3 nM): 58.65% | colony size, Control % (HCC827 cells; DBG 3 nM): 78.77% | colony number, Control % (HCC827 cells; DBG 6 nM): 34.62% | colony size, Control % (HCC827 cells; DBG 6 nM): 57.75% | colony number, Control % (HCC827 cells; DBG 12 nM): 0.00% | colony size, Control % (HCC827 cells; DBG 12 nM): 0.00% | pIC50 (AKT2; ADP-Glo, AKT2 5 ng, RT, 60 min, luminescence, n=3): 7.95 | kinase activity, in words (AKT2; DBG 3, 6, 12 nM): significantly inhibited | phosphorylation level of MET (p-MET (Y1234/1235)): decreased | level of cyclin D1 (cyclin D1; DBG 3, 6, 12 nM, 48 h): significantly decreased | cyclinD1 protein/actin (cyclin D1; HCC827, DBG 3 nM, DBG 0 nM 0.51): 0.23 | cyclinD1 protein ratio (cyclin D1; HCC827, DBG 3 nM): 0.46 | cyclinD1 protein/actin (cyclin D1; HCC827, DBG 6 nM, DBG 0 nM 0.51): 0.14 | cyclinD1 protein ratio (cyclin D1; HCC827, DBG 6 nM): 0.27 | cyclinD1 protein/actin (cyclin D1; HCC827, DBG 12 nM, DBG 0 nM 0.51): 0.09 | cyclinD1 protein ratio (cyclin D1; HCC827, DBG 12 nM): 0.17 | cyclinD1 protein/actin (cyclin D1; HCC827GR, DBG 3 nM, DBG 0 nM 0.73): 0.37 | cyclinD1 protein ratio (cyclin D1; HCC827GR, DBG 3 nM): 0.51 | cyclinD1 protein/actin (cyclin D1; HCC827GR, DBG 6 nM, DBG 0 nM 0.73): 0.33 | cyclinD1 protein ratio (cyclin D1; HCC827GR, DBG 6 nM): 0.45 | cyclinD1 protein/actin (cyclin D1; HCC827GR, DBG 12 nM, DBG 0 nM 0.73): 0.41 | cyclinD1 protein ratio (cyclin D1; HCC827GR, DBG 12 nM): 0.57 | p-EGFR protein/actin (p-EGFR; HCC827, DBG 12 nM, control 0.90): 0.25 | p-EGFR protein Ratio (p-EGFR; HCC827, DBG 12 nM): 0.27 | p-EGFR protein/actin (p-EGFR; HCC827, NAC 4 mM + DBG 12 nM, control 0.90): 0.27 | p-EGFR protein Ratio (p-EGFR; HCC827, NAC 4 mM + DBG 12 nM): 0.30 | p-EGFR protein/actin (p-EGFR; HCC827GR, DBG 12 nM, control 0.93): 0.40 | p-EGFR protein Ratio (p-EGFR; HCC827GR, DBG 12 nM): 0.43 | p-EGFR protein/actin (p-EGFR; HCC827GR, NAC 4 mM + DBG 12 nM, control 0.93): 0.30 | p-EGFR protein Ratio (p-EGFR; HCC827GR, NAC 4 mM + DBG 12 nM): 0.32 | DBG-decreased phosphorylation of EGFR with NAC (p-EGFR; NAC 4 mM pretreatment, DBG 48 h): did not change | caspase3 protein/actin (caspase-3; HCC827, DBG 12 nM, control 0.39): 0.07 | caspase3 protein Ratio (caspase-3; HCC827, DBG 12 nM): 0.18 | caspase3 protein/actin (caspase-3; HCC827, NAC 4 mM + DBG 12 nM, control 0.39): 0.60 | caspase3 protein Ratio (caspase-3; HCC827, NAC 4 mM + DBG 12 nM): 1.53 | caspase3 protein/actin (caspase-3; HCC827GR, DBG 12 nM, control 0.59): 0.24 | caspase3 protein Ratio (caspase-3; HCC827GR, DBG 12 nM): 0.41 | caspase3 protein/actin (caspase-3; HCC827GR, NAC 4 mM + DBG 12 nM, control 0.59): 0.45 | caspase3 protein Ratio (caspase-3; HCC827GR, NAC 4 mM + DBG 12 nM): 0.77 | PARP protein/actin (PARP; HCC827, DBG 12 nM, control 0.96): 0.09 | PARP protein Ratio (PARP; HCC827, DBG 12 nM): 0.09 | PARP protein/actin (PARP; HCC827, NAC 4 mM + DBG 12 nM, control 0.96): 1.09 | PARP protein Ratio (PARP; HCC827, NAC 4 mM + DBG 12 nM): 1.14 | PARP protein/actin (PARP; HCC827GR, DBG 12 nM, control 0.99): 0.21 | PARP protein Ratio (PARP; HCC827GR, DBG 12 nM): 0.22 | PARP protein/actin (PARP; HCC827GR, NAC 4 mM + DBG 12 nM, control 0.99): 0.81 | PARP protein Ratio (PARP; HCC827GR, NAC 4 mM + DBG 12 nM): 0.82 | cells with activated caspases (HCC827GR cells; DBG 3 nM): 23.91% | cells with activated caspases (HCC827GR cells; DBG 6 nM): 31.13% | cells with activated caspases (HCC827GR cells; DBG 12 nM): 33.34% | Caspase+ cells (HCC827GR cells; DBG 3 nM, mean of samples 1-3): 8.71 | Caspase+/dead cells (HCC827GR cells; DBG 3 nM, mean of samples 1-3): 15.20 | Live cells (multi-caspase assay) (HCC827GR cells; DBG 3 nM, mean of samples 1-3): 74.50 | Total Caspase+ cells (HCC827GR cells; DBG 3 nM, mean of samples 1-3): 23.91 | dead cells (multi-caspase assay) (HCC827GR cells; DBG 3 nM, mean of samples 1-3): 1.60 | Caspase+ cells (HCC827GR cells; DBG 3 nM, sample 1): 8.78 | Caspase+/dead cells (HCC827GR cells; DBG 3 nM, sample 1): 15.95 | Live cells (multi-caspase assay) (HCC827GR cells; DBG 3 nM, sample 1): 73.93 | Total Caspase+ cells (HCC827GR cells; DBG 3 nM, sample 1): 24.73 | dead cells (multi-caspase assay) (HCC827GR cells; DBG 3 nM, sample 1): 1.34 | Caspase+ cells (HCC827GR cells; DBG 3 nM, sample 2): 8.19 | Caspase+/dead cells (HCC827GR cells; DBG 3 nM, sample 2): 14.57 | Live cells (multi-caspase assay) (HCC827GR cells; DBG 3 nM, sample 2): 75.49 | Total Caspase+ cells (HCC827GR cells; DBG 3 nM, sample 2): 22.76 | dead cells (multi-caspase assay) (HCC827GR cells; DBG 3 nM, sample 2): 1.75 | Caspase+ cells (HCC827GR cells; DBG 3 nM, sample 3): 9.16 | Caspase+/dead cells (HCC827GR cells; DBG 3 nM, sample 3): 15.07 | Live cells (multi-caspase assay) (HCC827GR cells; DBG 3 nM, sample 3): 74.07 | Total Caspase+ cells (HCC827GR cells; DBG 3 nM, sample 3): 24.23 | dead cells (multi-caspase assay) (HCC827GR cells; DBG 3 nM, sample 3): 1.70 | Caspase+ cells (HCC827GR cells; DBG 6 nM, mean of samples 1-3): 7.98 | Caspase+/dead cells (HCC827GR cells; DBG 6 nM, mean of samples 1-3): 23.15 | Live cells (multi-caspase assay) (HCC827GR cells; DBG 6 nM, mean of samples 1-3): 67.79 | Total Caspase+ cells (HCC827GR cells; DBG 6 nM, mean of samples 1-3): 31.13 | dead cells (multi-caspase assay) (HCC827GR cells; DBG 6 nM, mean of samples 1-3): 1.08 | Caspase+ cells (HCC827GR cells; DBG 6 nM, sample 1): 7.79 | Caspase+/dead cells (HCC827GR cells; DBG 6 nM, sample 1): 23.36 | Live cells (multi-caspase assay) (HCC827GR cells; DBG 6 nM, sample 1): 67.58 | Total Caspase+ cells (HCC827GR cells; DBG 6 nM, sample 1): 31.15 | dead cells (multi-caspase assay) (HCC827GR cells; DBG 6 nM, sample 1): 1.27 | Caspase+ cells (HCC827GR cells; DBG 6 nM, sample 2): 7.88 | Caspase+/dead cells (HCC827GR cells; DBG 6 nM, sample 2): 23.02 | Live cells (multi-caspase assay) (HCC827GR cells; DBG 6 nM, sample 2): 67.97 | Total Caspase+ cells (HCC827GR cells; DBG 6 nM, sample 2): 30.90 | dead cells (multi-caspase assay) (HCC827GR cells; DBG 6 nM, sample 2): 1.13 | Caspase+ cells (HCC827GR cells; DBG 6 nM, sample 3): 8.26 | Caspase+/dead cells (HCC827GR cells; DBG 6 nM, sample 3): 23.08 | Live cells (multi-caspase assay) (HCC827GR cells; DBG 6 nM, sample 3): 67.82 | Total Caspase+ cells (HCC827GR cells; DBG 6 nM, sample 3): 31.34 | dead cells (multi-caspase assay) (HCC827GR cells; DBG 6 nM, sample 3): 0.83 | Caspase+ cells (HCC827GR cells; DBG 12 nM, mean of samples 1-3): 9.57 | Caspase+/dead cells (HCC827GR cells; DBG 12 nM, mean of samples 1-3): 23.77 | Live cells (multi-caspase assay) (HCC827GR cells; DBG 12 nM, mean of samples 1-3): 66.05 | Total Caspase+ cells (HCC827GR cells; DBG 12 nM, mean of samples 1-3): 33.34 | dead cells (multi-caspase assay) (HCC827GR cells; DBG 12 nM, mean of samples 1-3): 0.61 | Caspase+ cells (HCC827GR cells; DBG 12 nM, sample 1): 11.11 | Caspase+/dead cells (HCC827GR cells; DBG 12 nM, sample 1): 21.58 | Live cells (multi-caspase assay) (HCC827GR cells; DBG 12 nM, sample 1): 67.07 | Total Caspase+ cells (HCC827GR cells; DBG 12 nM, sample 1): 32.69 | dead cells (multi-caspase assay) (HCC827GR cells; DBG 12 nM, sample 1): 0.24 | Caspase+ cells (HCC827GR cells; DBG 12 nM, sample 2): 10.36 | Caspase+/dead cells (HCC827GR cells; DBG 12 nM, sample 2): 24.35 | Live cells (multi-caspase assay) (HCC827GR cells; DBG 12 nM, sample 2): 65.05 | Total Caspase+ cells (HCC827GR cells; DBG 12 nM, sample 2): 34.70 | dead cells (multi-caspase assay) (HCC827GR cells; DBG 12 nM, sample 2): 0.24 | Caspase+ cells (HCC827GR cells; DBG 12 nM, sample 3): 7.24 | Caspase+/dead cells (HCC827GR cells; DBG 12 nM, sample 3): 25.38 | Live cells (multi-caspase assay) (HCC827GR cells; DBG 12 nM, sample 3): 66.02 | Total Caspase+ cells (HCC827GR cells; DBG 12 nM, sample 3): 32.62 | dead cells (multi-caspase assay) (HCC827GR cells; DBG 12 nM, sample 3): 1.36
